How the values were obtained:
human plasma kallikrein = target: T1, human plasma kallikrein (Homo sapiens, UniProt P03952); assay: Determination of the plasma kallikrein activity (fluorogenic peptide substrate, AMC cleavage); type: biochemical; settings: plasma kallikrein from Kordia 0.6 nM; substrate H-Pro-Phe-Arg-AMC 10 μM; 30 min at 22° C.; in some cases averages from multiple determinations
T1 construct: purchased Kordia
Experimental: (§1) To determine the plasma kallikrein inhibition of the substances according to the invention, a biochemical test system is used which utilizes the reaction of a peptidic plasma kallikrein substrate to determine the enzymatic activity of human plasma kallikrein. Here, plasma kallikrein cleaves from the peptic plasma kallikrein substrate the C-terminal aminomethylcoumarin (AMC), the fluorescence of which is measured. The determinations are conducted in microtitre plates.
Test substances are dissolved in dimethyl sulfoxide and serially diluted in dimethyl sulfoxide (3000 μM to 0.0078 μM; resulting final concentrations in the test: 50 μM to 0.00013 μM). 1 μl of the diluted substance solutions is placed into each of the wells of white microtitre plates from Greiner (384 wells). 20 μl of assay buffer (50 mM Tris/HCl pH 7.4; 100 mM sodium chloride solution; 5 mM calcium chloride solution; 0.1% of bovine serum albumin) and 20 μl of plasma kallikrein from Kordia (0.6 nM in assay buffer) are then added successively. After 15 min of incubation, the enzyme reaction is started by addition of 20 μl of the substrate H-Pro-Phe-Arg-AMC dissolved in assay buffer (10 μM in assay buffer) from Bachem, the mixture is incubated at room temperature (22° C.) for 30 min and fluorescence is then measured (excitation: 360 nm, emission: 460 nm). The measured emissions of the test batches with test substance are compared to those of control batches without test substance (only dimethyl sulfoxide instead of test substance in dimethyl sulfoxide), and IC50 values are calculated from the concentration/activity relationships. Activity data from this test are given in Table B below (in some cases as averages from multiple individual determinations): […]

human factor XIa = target: T2, human factor XIa (Homo sapiens, UniProt P03951); assay: Measurement of FXIa inhibition (fluorogenic peptide substrate, AMC cleavage); type: biochemical; settings: factor XIa from Kordia 0.45 nM; substrate Boc-Glu(OBzl)-Ala-Arg-AMC 10 μM; 30 min at 22° C.; in some cases averages from multiple determinations
T2 construct: purchased Kordia
T2 sequence (P03951 388-625 limits assumed): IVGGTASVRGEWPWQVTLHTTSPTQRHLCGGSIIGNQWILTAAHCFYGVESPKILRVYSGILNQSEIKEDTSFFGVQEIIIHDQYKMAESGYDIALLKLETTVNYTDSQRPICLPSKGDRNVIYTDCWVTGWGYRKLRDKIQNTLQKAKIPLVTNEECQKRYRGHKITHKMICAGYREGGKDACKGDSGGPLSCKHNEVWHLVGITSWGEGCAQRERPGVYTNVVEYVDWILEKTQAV
T2 sequence (P03951 19-387 partner limits assumed): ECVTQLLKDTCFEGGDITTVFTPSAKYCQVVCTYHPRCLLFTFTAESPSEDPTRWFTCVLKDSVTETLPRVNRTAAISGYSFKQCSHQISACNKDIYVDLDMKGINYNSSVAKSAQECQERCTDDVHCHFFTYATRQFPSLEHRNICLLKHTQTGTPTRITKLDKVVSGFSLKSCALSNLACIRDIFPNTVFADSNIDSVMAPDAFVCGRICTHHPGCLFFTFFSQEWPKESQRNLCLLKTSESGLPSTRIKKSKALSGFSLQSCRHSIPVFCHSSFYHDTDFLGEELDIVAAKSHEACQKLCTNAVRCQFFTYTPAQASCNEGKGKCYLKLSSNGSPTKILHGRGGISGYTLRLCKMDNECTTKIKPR
Experimental: as §1, with “The factor XIa” for “To determine the plasma kallikrein”, “invention is determined using” for “invention,”, “system” for “system is used”, “factor XIa” for “plasma kallikrein”, “factor XIa.” for “plasma kallikrein.”
Test substances are dissolved in dimethyl sulfoxide and serially diluted in dimethyl sulfoxide (3000 μM to 0.0078 μM; resulting final concentrations in the test: 50 μM to 0.00013 μM). 1 μl of the diluted substance solutions is placed into each of the wells of white microtitre plates from Greiner (384 wells). 20 μl of assay buffer (50 mM of Tris/HCl pH 7.4; 100 mM of sodium chloride; 5 mM of calcium chloride; 0.1% of bovine serum albumin) and 20 μl of factor XIa from Kordia (0.45 nM in assay buffer) are then added successively. After 15 min of incubation, the enzyme reaction is started by addition of 20 μl of the factor XIa substrate Boc-Glu(OBzl)-Ala-Arg-AMC dissolved in assay buffer (10 μM in assay buffer) from Bachem, the mixture is incubated at room temperature (22° C.) for 30 min and fluorescence is then measured (excitation: 360 nm, emission: 460 nm). The measured emissions of the test batches with test substance are compared to those of control batches without test substance (only dimethyl sulfoxide instead of test substance in dimethyl sulfoxide), and IC50 values are calculated from the concentration/activity relationships. Activity data from this test are given in Table A below (in some cases as averages from multiple individual determinations): […]

T1 sequence (P03952 391-638 limits assumed): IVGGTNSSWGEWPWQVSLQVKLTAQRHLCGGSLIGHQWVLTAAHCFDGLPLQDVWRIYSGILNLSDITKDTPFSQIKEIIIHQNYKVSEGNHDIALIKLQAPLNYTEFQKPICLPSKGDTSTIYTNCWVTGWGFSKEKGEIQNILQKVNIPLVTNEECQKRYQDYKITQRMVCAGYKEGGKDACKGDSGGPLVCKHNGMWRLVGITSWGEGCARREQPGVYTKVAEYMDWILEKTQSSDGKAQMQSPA
T1 sequence (P03952 20-390 partner limits assumed): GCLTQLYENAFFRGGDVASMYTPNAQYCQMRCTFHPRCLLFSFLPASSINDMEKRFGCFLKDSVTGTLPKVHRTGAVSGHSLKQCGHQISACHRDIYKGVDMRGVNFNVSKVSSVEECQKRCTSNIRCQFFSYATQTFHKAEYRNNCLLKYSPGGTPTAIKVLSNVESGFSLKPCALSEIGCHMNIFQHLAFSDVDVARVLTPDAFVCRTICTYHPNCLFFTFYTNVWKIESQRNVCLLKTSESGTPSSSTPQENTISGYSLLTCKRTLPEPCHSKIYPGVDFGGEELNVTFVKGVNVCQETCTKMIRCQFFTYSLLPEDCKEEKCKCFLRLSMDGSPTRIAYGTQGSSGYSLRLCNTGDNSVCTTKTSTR

| SMILES | IC50 (human plasma kallikrein) [nM] | IC50 (human factor XIa) [nM] |
| --- | --- | --- |
| COCCC(C(=O)Nc1ccc(C(=O)O)cc1)n1cc(OC)c(-c2cc(Cl)ccc2OCC(F)(F)F)cc1=O (racemic) [Example 1, 4-[(2-{4-[5-Chloro-2-(2,2,2-trifluoroethoxy)phenyl]-5-methoxy-2-oxopyridin-1(2H)-yl}-4-methoxybutanoyl)amino]benzoic acid] | 55 | 1.2 |
| COCCC(C(=O)Nc1ccc(C(N)=O)c(F)c1)n1cc(OC)c(-c2cc(Cl)ccc2OCC(F)(F)F)cc1=O (racemic) [Example 3, 4-[(2-{4-[5-Chloro-2-(2,2,2-trifluoroethoxy)phenyl]-5-methoxy-2-oxopyridin-1(2H)-yl}-4-methoxybutanoyl)amino]-2-fluorobenzamide] | 100 | 14 |
| CNC(=O)c1ccc(NC(=O)C(CCOC)n2cc(OC)c(-c3cc(Cl)ccc3OCC(F)(F)F)cc2=O)cn1 (racemic) [Example 4, 5-[(2-{4-[5-Chloro-2-(2,2,2-trifluoroethoxy)phenyl]-5-methoxy-2-oxopyridin-1(2H)-yl}-4-methoxybutanoyl)amino]-N-methylpyridine-2-carboxamide] | 49 | 6.5 |
| COCCC(C(=O)Nc1ccc2nn(C)cc2c1)n1cc(OC)c(-c2cc(Cl)ccc2OCC(F)(F)F)cc1=O (racemic) [Example 5, 2-{4-[5-Chloro-2-(2,2,2-trifluoroethoxy)phenyl]-5-methoxy-2-oxopyridin-1(2H)-yl}-4-methoxy-N-(2-methyl-2H-indazol-5-yl)butanamide] | 33 | 4.1 |
| CNC(=O)c1ccc(NC(=O)C(CCOC)n2cc(OC)c(-c3cc(Cl)ccc3OCC(F)(F)F)cc2=O)cc1F (racemic) [Example 6, 4-[(2-{4-[5-Chloro-2-(2,2,2-trifluoroethoxy)phenyl]-5-methoxy-2-oxopyridin-1(2H)-yl}-4-methoxybutanoyl)amino]-2-fluoro-N-methylbenzamide] | 130 | 19 |
| COc1cn(C(CCOC(C)(C)C)C(=O)Nc2ccc(C(=O)O)cc2)c(=O)cc1-c1cc(Cl)ccc1OCC(F)(F)F (racemic) [Example 7, 4-[(4-tert-Butoxy-2-{4-[5-chloro-2-(2,2,2-trifluoroethoxy)phenyl]-5-methoxy-2-oxopyridin-1(2H)-yl}butanoyl)amino]benzoic acid] | 34 | 0.71 |
| COc1cn(C(CCOC(C)(C)C)C(=O)Nc2ccc3nn(C)cc3c2)c(=O)cc1-c1cc(Cl)ccc1OCC(F)(F)F (racemic) [Example 9, 4-tert-Butoxy-2-{4-[5-chloro-2-(2,2,2-trifluoroethoxy)phenyl]-5-methoxy-2-oxopyridin-1(2H)-yl}-N-(2-methyl-2H-indazol-5-yl)butanamide] | 57 | 14 |
| COc1cn(C(CCOC(C)(C)C)C(=O)Nc2ccc(C(N)=O)c(F)c2)c(=O)cc1-c1cc(Cl)ccc1OCC(F)(F)F (racemic) [Example 10, 4-[(4-tert-Butoxy-2-{4-[5-chloro-2-(2,2,2-trifluoroethoxy)phenyl]-5-methoxy-2-oxopyridin-1(2H)-yl}butanoyl)amino]-2-fluorobenzamide] | 77 | 15 |
| COc1cn(C(CCOC(C)(C)C)C(=O)Nc2ccc(C(N)=O)nc2)c(=O)cc1-c1cc(Cl)ccc1OCC(F)(F)F (racemic) [Example 11, 5-[(4-tert-Butoxy-2-{4-[5-chloro-2-(2,2,2-trifluoroethoxy)phenyl]-5-methoxy-2-oxopyridin-1(2H)-yl}butanoyl)amino]pyridine-2-carboxamide] | 87 | 18 |
| CNC(=O)c1ccc(NC(=O)C(CCOC(C)(C)C)n2cc(OC)c(-c3cc(Cl)ccc3OCC(F)(F)F)cc2=O)cn1 (racemic) [Example 12, 5-[(4-tert-Butoxy-2-{4-[5-chloro-2-(2,2,2-trifluoroethoxy)phenyl]-5-methoxy-2-oxopyridin-1(2H)-yl}butanoyl)amino]-N-methylpyridine-2-carboxamide] | 60 | 12 |
| COc1cn(C(Cc2ccn(C)n2)C(=O)Nc2ccc(C(=O)O)cc2)c(=O)cc1-c1cc(Cl)ccc1OCC(F)(F)F (racemic) [Example 13, 4-{[2-{4-[5-Chloro-2-(2,2,2-trifluoroethoxy)phenyl]-5-methoxy-2-oxopyridin-1(2H)-yl}-3-(1-methyl-1H-pyrazol-3-yl)propanoyl]amino}benzoic acid] | 14 | 1.3 |
| COc1cn(C(Cc2ccn(C)n2)C(=O)Nc2ccc3nn(C)cc3c2)c(=O)cc1-c1cc(Cl)ccc1OCC(F)(F)F (racemic) [Example 14, 2-{4-[5-Chloro-2-(2,2,2-trifluoroethoxy)phenyl]-5-methoxy-2-oxopyridin-1(2H)-yl}-N-(2-methyl-2H-indazol-5-yl)-3-(1-methyl-1H-pyrazol-3-yl)propanamide] | 45 | 9.3 |
| CNC(=O)c1ccc(NC(=O)C(Cc2ccn(C)n2)n2cc(OC)c(-c3cc(Cl)ccc3OCC(F)(F)F)cc2=O)cn1 (racemic) [Example 15, 5-{[2-{4-[5-Chloro-2-(2,2,2-trifluoroethoxy)phenyl]-5-methoxy-2-oxopyridin-1(2H)-yl}-3-(1-methyl-1H-pyrazol-3-yl)propanoyl]amino}-N-methylpyridine-2-carboxamide] | 35 | 6.4 |
| COc1cn(C(Cc2ccn(C)n2)C(=O)Nc2ccc(C(N)=O)c(F)c2)c(=O)cc1-c1cc(Cl)ccc1OCC(F)(F)F (racemic) [Example 16, 4-{[2-{4-[5-Chloro-2-(2,2,2-trifluoroethoxy)phenyl]-5-methoxy-2-oxopyridin-1 (2H)-yl}-3-(1-methyl-1H-pyrazol-3-yl)propanoyl]amino}-2-fluorobenzamide] | 67 | 10 |
| COc1cn(C(CC2=NOCCC2)C(=O)Nc2ccc3nn(C)cc3c2)c(=O)cc1-c1cc(Cl)ccc1OCC(F)(F)F (racemic) [Example 24, 2-{4-[5-Chloro-2-(2,2,2-trifluoroethoxy)phenyl]-5-methoxy-2-oxopyridin-1(2H)-yl}-3-(5,6-dihydro-4H-1,2-oxazin-3-yl)-N-(2-methyl-2H-indazol-5-yl)propanamide] | 130 | 36 |
| COc1cn(C(CCOC(C)(C)C)C(=O)Nc2ccc(C(=O)O)cc2)c(=O)cc1-c1cc(Cl)ccc1OCC(F)F (racemic) [Example 25, 4-[(4-tert-Butoxy-2-{4-[5-chloro-2-(2,2-difluoroethoxy)phenyl]-5-methoxy-2-oxopyridin-1(2H)-yl}butanoyl)amino]benzoic acid] | 120 | 2.4 |
| COc1cn(C(CCOC(C)(C)C)C(=O)Nc2ccc(C(N)=O)c(F)c2)c(=O)cc1-c1cc(Cl)ccc1OCC(F)F (racemic) [Example 26, 4-[(4-tert-Butoxy-2-{4-[5-chloro-2-(2,2-difluoroethoxy)phenyl]-5-methoxy-2-oxopyridin-1(2H)-yl}butanoyl)amino]-2-fluorobenzamide] | 150 | 25 |
| COc1cn(C(CCOC(C)(C)C)C(=O)Nc2ccc(C(N)=O)nc2)c(=O)cc1-c1cc(Cl)ccc1OCC(F)F (racemic) [Example 27, 5-[(4-tert-Butoxy-2-{4-[5-chloro-2-(2,2-difluoroethoxy)phenyl]-5-methoxy-2-oxopyridin-1(2H)-yl}butanoyl)amino]pyridine-2-carboxamide] | 95 | 18 |
| COc1cn(C(CCOC(C)(C)C)C(=O)Nc2ccc3nn(C)cc3c2)c(=O)cc1-c1cc(Cl)ccc1OCC(F)F (racemic) [Example 28, 4-tert-Butoxy-2-{4-[5-chloro-2-(2,2-difluoroethoxy)phenyl]-5-methoxy-2-oxopyridin-1(2H)-yl}-N-(2-methyl-2H-indazol-5-yl)butanamide] | 120 | 28 |
